# Where a SMILES comes first, the peptide text is derived from it. Bridges are numbered along the chain shown (N, C = ends). [ ]: non-standard residue; d: D form. R8 = C=CCCCCCC[C@@](C)(N)C(=O)O; S5 = C=CCCC[C@](C)(N)C(=O)O
# Legend:
# [1] = system: ASC; assay: Imaging of ASC speck oligomerization in THP-1 cells; format: cell-based, human; conditions: THP-1, LPS 0.1 μg/ml 4 h, nigericin 10 μM 1 h; 100 μM peptide; Fig. 8E
# Procedure: Figure 8 ASC peptides effectively block IL-1β and IL-18 release and ASC oligomerization in human blood monocytes. (A) IL-1β and IL-18 were measured in cell-free supernatants from THP-1 cells incubated with FAM-ASC^PYD #5 or FAM-ASC^PYD #6 (12.5, 25,50 and 100 μM) for 24 h and primed with LPS (0.1 μg/ml, 4 h) followed by stimulation with nigericin (10 μM, 1 h), as assessed by ELISA. (B) Production of IL-1β and IL-18 from human blood monocytes stimulated or not with LPS (0.1 μg/ml, 4 h) alone or in a combination of ATP (5 mM, 30 min) in the presence of FAM-ASC^PYD #5 or FAM-ASC^PYD #6 (25, 50 and 100 μM) peptides. (C,D) Western blot analysis of processed IL-1β p17 (C) and Casp-1 p20 (D) in cell-free supernatants of THP-1 cells primed with LPS (0.1 μg/ml, 4 h), followed by stimulation with nigericin (10 μM, 1 h) in the presence of FAM-ASC^PYD #5 (25, 50 and 100 μM), FAM-ASC^PYD #6 (50 and 100 μM) peptides, or DMSO vehicle. Expression of pro-IL-1β p35 and pro-Casp-1 p50 was assessed in cell lysates. GAPDH was used as loading control. (E) Imaging of ASC speck oligomerization in THP-1 cells treated with LPS (0.1 μg/ml, 4 h) and nigericin (10 μM, 1 h) in the absence or presence of FAM-ASC^PYD #5 or FAM-ASC^PYD #6 (100 μM) peptides. The number of ASC specks were counted manually in at least 100 cells, and the proportion of cells containing a speck was shown. […]
# [2] = Circular dichroism, percentage of helicity (K2D3); format: physicochemical; conditions: CD, room temperature, water, 100 μM peptide; estimated with K2D3
# Description: The conformation of helix 2 (^16TAEELKKFKLKLLSV^30) bound to ASC^PYD (Fig. 1A) was used as the starting structure for the peptide-protein interaction modeling. Following I,I + 7 stapling scheme, we inserted a hydrocarbon staple across positions 5 and 12 along the peptide and then introduced mutations to produce a set of stapled peptides. Two variants of the template peptide were designed – a short version containing 13 residues (ms_ASC^PYD #6) and a long version containing 15 residues (ms_ASC^PYD #1–5) with two additional residues at the N-terminus (Table 1). These two additional residues were inserted to increase the length of the peptide, thus potentially enabling sufficient conformational flexibility for the region involving the critical Arg3 to remain helical. A similar approach was taken to introduce the staple in the ms_NLRP3^PYD peptide. As determined from Circular Dichroism (CD) spectra, inserting the I,I + 7 staple had the intended effect of increasing helicity of the peptides (Fig. 3). […] Percentage of helicity was much higher for ASC^PYD stapled peptides #5 and #6, 95% and 70% respectively at 100 μM peptide concentration. Percentage of helicity for the peptides were estimated from the web server K2D3[36] using CD data.
# Figure 3 Circular dichroism (CD) spectra of (A) NLRP3^PYD and (B) ASC^PYD peptides to measure secondary structures.
# [3] = system: NLRP3 inflammasome; assay: Western blot of processed IL-1β p17 and Casp-1 p20 in THP-1 supernatants and of pro-forms in lysates; format: cell-based, human; conditions: THP-1, LPS/nigericin, Fig. 8D
# Procedure: THP-1 cells and monocytes were incubated with NLRP3^PYD (12.5–25–50 μM), ASC^PYD #5 (12.5-25-50-100 μM) or ASC^PYD #6 (12.5-25-50-100 μM) for the indicated durations. Cells were then washed once with PBS and primed with E. coli LPS (0.1 μg/ml, Invivogen) for 4 h followed by stimulation with nigericin (10 μM) for an additional 1 h or ATP ([…]) for an additional 30 min. The cell culture supernatants were then collected and centrifuged at 500 × g to remove cells and cellular debris.
# Cell-free supernatants were mixed 1:4 to cold acetone and incubated at −20 °C for at least 1 h. The mixtures were then centrifuged at 15,000 rpm for 15 min at 4 °C. Supernatants were discarded and pellets re-suspended in 1X Laemmli buffer. Total cell lysates were prepared using RIPA buffer containing 150 mM NaCl, 0.5% sodium deoxycholate, 0.1% SDS, 50 mM Tris-HCl pH 8.0 and 1% Triton-X-100. Protein concentrations were determined by BCA assay (Thermo Scientific, cat. 23227) following the manufacturer’s instructions. Lysates were reconstituted in Laemmli buffer (20–50 μg), boiled and separated by SDS–PAGE, and transferred onto PVDF membranes. […]
SMILES,ASC speck formation [1],Percentage of helicity [2] [%],Caspase-1 activation (caspase-1 p20 in supernatants) [3]
CC[C@H](C)[C@@H]1NC(=O)[C@H](CCCCN)NC(=O)[C@H](C)NC(=O)[C@H](CCCCN)NC(=O)[C@H](CCCCN)NC(=O)[C@](C)(NC(=O)[C@H](C)NC(=O)[C@H](CCCNC(=N)N)NC(C)=O)CCCCCCC=CCCC[C@@](C)(C(=O)N[C@@H](CCC(=O)O)C(=O)N[C@@H](CO)C(=O)N[C@H](C(N)=O)C(C)C)NC(=O)[C@H](CCCCN)NC1=O [ms_ASC^PYD #6] (Ac-RA[R8]KKAKIK[S5]ESV-NH2; staple 3-10),significantly inhibited speck formation,70,reduced caspase-1 activation in a dose-dependent manner
CC[C@H](C)[C@@H]1NC(=O)[C@H](CCCCN)NC(=O)[C@H](C)NC(=O)[C@H](CC(C)C)NC(=O)[C@H](CCCCN)NC(=O)[C@](C)(NC(=O)[C@H](C)NC(=O)[C@H](CCCNC(=N)N)NC(=O)[C@H](C)NC(=O)[C@@H](NC(C)=O)[C@@H](C)O)CCCCCCC=CCCC[C@@](C)(C(=O)N[C@@H](CCC(=O)O)C(=O)N[C@@H](CO)C(=O)N[C@H](C(N)=O)C(C)C)NC(=O)[C@H](CCCCN)NC1=O [ms_ASC^PYD #5] (Ac-TARA[R8]KLAKIK[S5]ESV-NH2; staple 5-12),significantly inhibited speck formation,95,reduced caspase-1 activation in a dose-dependent manner
